According to patent US20040229336A1, “Method for in vitro culture of viruses of the togaviridae and flaviviridae families and uses” (Bio Merieux, priority 1999, published 2004):

Tests used:
HCV = test: Observation in patients infected both with HIV and with HCV taking HIV protease inhibitors; assay type: in vivo, human
From the text: For this reason, it is advantageous to add to the method of the invention at least one apoptosis-modulating agent.

LSR receptor = molecular target: T1, LSR receptor (Homo sapiens, UniProt Q86X29); test: Kinetics of attachment of the LVPs to the LSR receptor of hepatocytes (PLC/PRF/5 cells), quantitative RT-PCR of HCV RNA; assay type: cell-based; conditions: 0.5 mM oleate vs without oleate, +4° C., 1 to 9 hours
T1 construct: endogenous in cells; host or cells: PLC/PRF/5 human hepatocarcinoma cells
T1 sequence (Q86X29 1-649): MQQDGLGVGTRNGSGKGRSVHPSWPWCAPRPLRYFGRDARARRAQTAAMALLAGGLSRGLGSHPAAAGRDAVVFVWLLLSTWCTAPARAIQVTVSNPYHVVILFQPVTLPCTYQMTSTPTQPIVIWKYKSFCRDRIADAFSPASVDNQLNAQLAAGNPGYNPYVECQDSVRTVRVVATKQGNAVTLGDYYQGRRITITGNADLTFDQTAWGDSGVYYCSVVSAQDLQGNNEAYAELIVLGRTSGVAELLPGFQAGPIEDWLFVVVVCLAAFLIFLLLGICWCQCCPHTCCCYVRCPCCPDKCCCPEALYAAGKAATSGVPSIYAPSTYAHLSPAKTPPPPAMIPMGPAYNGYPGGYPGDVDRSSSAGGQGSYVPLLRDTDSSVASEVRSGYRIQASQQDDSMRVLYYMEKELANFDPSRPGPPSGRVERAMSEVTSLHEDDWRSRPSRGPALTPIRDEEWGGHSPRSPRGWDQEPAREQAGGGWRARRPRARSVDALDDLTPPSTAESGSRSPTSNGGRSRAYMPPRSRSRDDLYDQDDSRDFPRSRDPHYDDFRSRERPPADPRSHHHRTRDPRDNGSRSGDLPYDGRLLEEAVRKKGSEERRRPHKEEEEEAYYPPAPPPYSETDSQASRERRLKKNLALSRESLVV
Method: A fraction containing LVPs with a density of between 1.025 g/ml and 1.055 g/ml was obtained from an HCV-positive serum as described in example 1.
The amount of proteins present in the LVP fraction was determined by the Lowry method using the “Protein Assay” kit (Sigma Diagnostics) and the viral titer was evaluated by quantification of the HCV RNA by RT-PCR and real-time fluorescence detection (LightCycler™, Roche) (Wittwer et al., Biotechniques, 22: 176-181 (1997)).
The PLC/PRF/5 cell line, described in example 2 and cultured in DMEM medium-10% SVF, was used for studying the attachment of LVPs to the LSR receptor in the presence or absence of oleate.
The results were obtained according to the following protocol:
The PLC/PRF/5 cells were seeded at 1 million cells/well, so as to obtain, after incubation for 24 hours at 37° C., 5% CO2, approximately 80% confluence.
Two washes in cold 1×PBS buffer were carried out, and then 1 ml of cold complete DMEM medium containing 0.2% of BSA is added to the PLC cells maintained on a bed of ice.
The LVP fraction (i.e. 10 mg of proteins and 1.7×10^6 of copies of HCV RNA) is added to the cells in the presence or absence of 0.5 mM oleate. […]
An incubation was carried out at +4° C. for a period of time ranging from 1 to 9 hours. […] The RNAs were then purified using this same kit and analyzed by quantitative RT-PCR (LightCycler™). […]

hepatitis C virus = test: Infection of PLC/PRF/5 cells with HCV-positive serum or LVP fractions, HCV genome in culture supernatants by semi-nested RT-PCR; assay type: cell-based, human
Method: The culture medium used is DMEM medium (marketed by Gibco BRL) supplemented with: 1 mM of sodium pyruvate (Gibco), 1% of nonessential amino acids (Boehringer Mannheim), 2 mM of glutamine (Gibco BRL), 200 U/ml of penicillin (bioMérieux), […] of streptomycin (bioMérieux) and 10% of calf serum (Boehringer).
The cells originate from the PLC/PRF/5 cell line (Alexander cells) (ATCC reference: CRL 8024), which is a line established from a human hepatocarcinoma. This line, which has integrated a defective hepatitis B genome, secretes the HBs antigen of the hepatitis B virus but no infectious virus. The cells are cultured in the complete DMEM medium (Gibco-BRL) supplemented with 10% of foetal calf serum, mentioned above. The cells are washed with PBS (Gibco-BRL) preheated to 37° C. 1 ml of DMEM supplemented with 0.2% of BSA (Sigma) and 50 μg/ml of lipoproteins originating from each fraction or 100 μl of serum filtered over a 0.45μ membrane are added. Simultaneously, a solution of oleic acid in isopropanol, prepared beforehand (100 mM), is added in a concentration range of 0.1 to 0.8 mM. The cells are then subjected to incubation for 3 hours at 37° C. under a 5% CO2 atmosphere. The medium is then replaced with complete DMEM medium supplemented with 10% of foetal calf serum. The cells are returned to the incubator under the conditions described above. […]

Compound: CC(C)c1nc(CN(C)C(=O)N[C@H](C(=O)N[C@@H](Cc2ccccc2)C[C@H](O)[C@H](Cc2ccccc2)NC(=O)OCc2cncs2)C(C)C)cs1 [Ritonavir]
- HCV viremia and hepatic cytolysis (HCV): increase in the HCV virema associated with hepatic cytolysis

Compound: CCCCCCCC/C=C\CCCCCCCC(=O)O [oleic acid]
- attachment of the LVPs to the LSR receptor (number of HCV RNA copies) (LSR receptor): significantly increased
- pathway for endocytosis of the LVPs at the time of the infection (hepatitis C virus; LVP fractions with densities <1.0063, 1.0063-1.063 and >1.063 g/ml): facilitates the pathway for endocytosis of the LVPs
- presence of the HCV genome in the culture supernatants (hepatitis C virus; infection with 100 μl of serum of patients no. 1 and no. 2, with vs without 0.5 mM oleic acid): detected at a higher frequency
